Measurements taken from doi:10.1101/2023.11.24.568596v1 (biorxiv, 2023).

Columns and labels:
[1] = biological target: T1, BRPF1 (Homo sapiens, UniProt P55201); details: binder
T1 sequence (P55201 1-1214): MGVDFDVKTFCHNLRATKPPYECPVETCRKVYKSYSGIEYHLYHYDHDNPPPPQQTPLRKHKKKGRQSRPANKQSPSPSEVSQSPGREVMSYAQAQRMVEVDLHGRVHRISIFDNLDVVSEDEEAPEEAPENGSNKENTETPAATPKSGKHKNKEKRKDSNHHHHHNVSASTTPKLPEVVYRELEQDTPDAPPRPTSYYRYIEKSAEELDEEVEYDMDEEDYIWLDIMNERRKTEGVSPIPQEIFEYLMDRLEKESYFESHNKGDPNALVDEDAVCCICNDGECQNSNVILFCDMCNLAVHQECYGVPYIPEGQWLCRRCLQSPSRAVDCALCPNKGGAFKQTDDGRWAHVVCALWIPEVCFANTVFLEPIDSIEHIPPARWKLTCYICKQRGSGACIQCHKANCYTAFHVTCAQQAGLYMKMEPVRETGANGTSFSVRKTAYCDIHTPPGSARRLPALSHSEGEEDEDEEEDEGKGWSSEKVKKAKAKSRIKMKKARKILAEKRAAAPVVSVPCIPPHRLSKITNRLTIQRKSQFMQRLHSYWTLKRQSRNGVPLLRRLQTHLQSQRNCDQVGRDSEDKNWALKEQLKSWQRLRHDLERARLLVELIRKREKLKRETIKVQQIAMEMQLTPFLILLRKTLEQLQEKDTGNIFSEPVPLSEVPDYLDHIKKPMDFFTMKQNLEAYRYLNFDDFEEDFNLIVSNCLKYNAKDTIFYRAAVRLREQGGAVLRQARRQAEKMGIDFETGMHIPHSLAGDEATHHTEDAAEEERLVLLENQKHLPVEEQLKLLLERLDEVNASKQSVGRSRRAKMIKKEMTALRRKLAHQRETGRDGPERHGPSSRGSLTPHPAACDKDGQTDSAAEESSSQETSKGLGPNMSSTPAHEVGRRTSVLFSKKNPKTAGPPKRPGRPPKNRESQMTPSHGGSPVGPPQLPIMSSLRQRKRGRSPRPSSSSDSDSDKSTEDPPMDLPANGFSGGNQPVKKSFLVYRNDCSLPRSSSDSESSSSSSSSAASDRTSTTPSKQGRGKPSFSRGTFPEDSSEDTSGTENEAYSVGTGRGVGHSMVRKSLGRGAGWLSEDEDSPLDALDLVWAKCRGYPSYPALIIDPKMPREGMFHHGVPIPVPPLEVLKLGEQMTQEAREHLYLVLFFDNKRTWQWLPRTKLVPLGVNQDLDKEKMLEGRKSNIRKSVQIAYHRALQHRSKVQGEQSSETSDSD

[2] = biological target: Erk3 (Homo sapiens, UniProt Q16659); details: binder
Erk3, sequence (Q16659 whole entry): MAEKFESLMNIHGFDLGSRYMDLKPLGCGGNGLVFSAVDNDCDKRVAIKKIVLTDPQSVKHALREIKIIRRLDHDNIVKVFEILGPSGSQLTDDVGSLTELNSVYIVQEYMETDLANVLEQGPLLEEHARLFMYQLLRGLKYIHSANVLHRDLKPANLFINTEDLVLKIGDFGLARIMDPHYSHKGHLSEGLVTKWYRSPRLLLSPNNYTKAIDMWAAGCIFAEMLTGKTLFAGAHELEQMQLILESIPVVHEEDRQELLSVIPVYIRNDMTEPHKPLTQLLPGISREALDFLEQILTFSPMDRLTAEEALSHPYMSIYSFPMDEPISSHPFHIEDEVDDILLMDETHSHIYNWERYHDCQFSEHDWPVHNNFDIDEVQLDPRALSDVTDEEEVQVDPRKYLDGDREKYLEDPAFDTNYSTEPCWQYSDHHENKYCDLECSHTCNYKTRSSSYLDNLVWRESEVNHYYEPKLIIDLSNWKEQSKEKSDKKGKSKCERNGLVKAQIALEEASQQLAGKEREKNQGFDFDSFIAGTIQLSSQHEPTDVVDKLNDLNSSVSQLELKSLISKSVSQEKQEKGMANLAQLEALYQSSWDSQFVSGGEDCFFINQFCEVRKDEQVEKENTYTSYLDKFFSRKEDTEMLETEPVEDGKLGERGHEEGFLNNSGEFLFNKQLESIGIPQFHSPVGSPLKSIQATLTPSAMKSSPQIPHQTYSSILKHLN

SMILES: Cc1cccc(-c2ccc(-c3cc4cnc(NC(CO)CO)nc4n(CCCCN)c3=O)c(Cl)c2)n1 [compound 24, 8-(4-Aminobutyl)-6-(2-chloro-4-(6-methylpyridin-2-yl)phenyl)-2-((1,3-dihydroxypropan-2-yl)amino)pyrido[2,3-d]pyrimidin-7(8H)-one]
- ΔTm MR24 (24) [1]: -1.5 °C
- ΔTm MR24 (24) [2]: 0.4 °C

SMILES: Cc1cccc(-c2ccc(-c3cc4cnc(NCCCc5ccc(N)cc5)nc4n(CCCCN)c3=O)c(Cl)c2)n1 [compound 25, 8-(4-Aminobutyl)-2-((3-(4-aminophenyl)propyl)amino)-6-(2-chloro-4-(6-methylpyridin-2-yl)phenyl)pyrido[2,3-d]pyrimidin-7(8H)-one]
- ΔTm 25 [1]: -1.4 °C
- ΔTm 25 [2]: 1.0 °C

SMILES: CNc1ncc2cc(-c3ccc(-c4cccc(C)n4)cc3Cl)c(=O)n(CCC3CCNCC3)c2n1 [compound 22, 6-(2-Chloro-4-(6-methylpyridin-2-yl)phenyl)-2-(methylamino)-8-(2-(piperidin-4-yl)ethyl)pyrido[2,3-d]pyrimidin-7(8H)-one]
- ΔTm 22 [1]: -0.4 °C

SMILES: CNc1ncc2cc(-c3ccc(-c4cccc(C)n4)cc3Cl)c(=O)n(CCCCN)c2n1 [compound 20, MRLW5]
- ΔTm MRLW5 (20) [2]: 0.5 °C

SMILES: Cc1cccc(-c2ccc(-c3cc4cnc(NCCCN5CCOCC5)nc4n(CCCCN)c3=O)c(Cl)c2)n1 [compound 26, MR26]
- ΔTm MR26 (26) [1]: -1.0 °C
- ΔTm MR26 (26) [2]: 0.4 °C

SMILES: CNc1ncc2cc(-c3ccc(-c4cccc(C)n4)cc3Cl)c(=O)n(C[C@H]3CC[C@H](N)CC3)c2n1 [compound 23, 23]
- ΔTm 23 [1]: -1.8 °C
